From ChEMBL document CHEMBL1133144, “Synthesis and structure-activity relationships of a new class of 1-oxacephem-based human chymase inhibitors” (Bioorg Med Chem Lett, 2000)

Tests used:
[1] = biological target: T1, Serine protease 1 (Bos taurus, UniProt P00760); assay: The compound was evaluated for the inhibitory activity against trypsin
T1 sequence (P00760 whole entry): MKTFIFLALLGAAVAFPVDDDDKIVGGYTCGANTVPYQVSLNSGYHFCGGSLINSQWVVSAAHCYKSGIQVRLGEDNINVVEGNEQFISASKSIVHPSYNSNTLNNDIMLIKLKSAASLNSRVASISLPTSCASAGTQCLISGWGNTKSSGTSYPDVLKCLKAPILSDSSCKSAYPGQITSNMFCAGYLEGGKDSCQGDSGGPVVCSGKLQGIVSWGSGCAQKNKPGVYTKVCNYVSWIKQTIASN

[2] = biological target: Prothrombin (Homo sapiens, UniProt P00734); assay: The compound was evaluated for the inhibitory activity against thrombin
[3] = biological target: Plasminogen (Homo sapiens, UniProt P00747); assay: The compound was evaluated for the inhibitory activity against plasmin
[4] = biological target: T2, Cathepsin G (Homo sapiens, UniProt P08311); assay: The compound was evaluated for the inhibitory activity against cathepsin G
T2 sequence (P08311 whole entry): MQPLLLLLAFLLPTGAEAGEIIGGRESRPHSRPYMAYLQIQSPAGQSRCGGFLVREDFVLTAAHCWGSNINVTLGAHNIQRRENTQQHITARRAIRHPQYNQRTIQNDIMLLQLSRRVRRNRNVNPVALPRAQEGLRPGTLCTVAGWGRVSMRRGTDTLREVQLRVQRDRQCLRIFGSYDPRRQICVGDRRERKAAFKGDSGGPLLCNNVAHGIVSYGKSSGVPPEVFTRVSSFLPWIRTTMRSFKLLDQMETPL

[5] = biological target: T3, Neutrophil elastase (Homo sapiens, UniProt P08246); assay: The compound was evaluated for the inhibitory activity against human neutrophil elastase
T3 sequence (P08246 whole entry): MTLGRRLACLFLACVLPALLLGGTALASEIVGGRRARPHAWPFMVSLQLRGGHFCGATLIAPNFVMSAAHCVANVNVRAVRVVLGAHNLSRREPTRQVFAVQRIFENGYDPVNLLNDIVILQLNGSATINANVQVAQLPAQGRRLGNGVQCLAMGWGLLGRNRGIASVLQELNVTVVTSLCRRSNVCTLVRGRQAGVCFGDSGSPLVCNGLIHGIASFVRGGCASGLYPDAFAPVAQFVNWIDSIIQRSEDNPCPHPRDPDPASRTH

[6] = biological target: T4, Chymase (Homo sapiens, UniProt P23946); assay: Inhibitory activity against human serine protease chymase
T4 sequence (P23946 whole entry): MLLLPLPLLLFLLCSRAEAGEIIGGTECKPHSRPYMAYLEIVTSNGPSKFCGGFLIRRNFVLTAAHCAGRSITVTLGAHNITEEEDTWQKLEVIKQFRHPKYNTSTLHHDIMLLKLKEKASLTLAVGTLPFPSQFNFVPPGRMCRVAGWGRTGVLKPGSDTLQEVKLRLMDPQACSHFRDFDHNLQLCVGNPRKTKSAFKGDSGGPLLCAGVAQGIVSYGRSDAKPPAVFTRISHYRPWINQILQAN

Sequence of Plasminogen (P00747 97-580 limits assumed): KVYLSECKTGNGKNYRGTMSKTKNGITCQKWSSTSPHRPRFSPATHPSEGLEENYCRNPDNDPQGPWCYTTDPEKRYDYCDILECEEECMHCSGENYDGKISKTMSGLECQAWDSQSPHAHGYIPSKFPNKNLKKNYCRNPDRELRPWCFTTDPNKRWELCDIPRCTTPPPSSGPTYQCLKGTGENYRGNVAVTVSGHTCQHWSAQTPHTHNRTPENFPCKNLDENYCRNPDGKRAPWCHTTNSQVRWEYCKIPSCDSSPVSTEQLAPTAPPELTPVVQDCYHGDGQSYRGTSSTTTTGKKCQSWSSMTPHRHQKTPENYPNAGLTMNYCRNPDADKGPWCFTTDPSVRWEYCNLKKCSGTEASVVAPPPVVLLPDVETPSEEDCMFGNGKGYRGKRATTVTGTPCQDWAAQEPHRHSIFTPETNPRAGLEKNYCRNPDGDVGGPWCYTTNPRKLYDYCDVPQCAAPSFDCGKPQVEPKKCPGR
Sequence of Plasminogen (P00747 581-810 limits assumed): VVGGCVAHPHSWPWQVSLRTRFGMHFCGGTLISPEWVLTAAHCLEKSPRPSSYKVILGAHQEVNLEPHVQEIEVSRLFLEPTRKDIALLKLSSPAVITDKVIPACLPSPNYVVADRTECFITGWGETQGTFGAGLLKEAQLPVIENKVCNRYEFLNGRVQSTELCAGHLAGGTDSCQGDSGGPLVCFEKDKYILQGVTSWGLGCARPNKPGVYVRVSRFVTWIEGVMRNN

| Structure (SMILES) | IC50 [6] | further results |
| --- | --- | --- |
| COc1ccccc1C(=O)N[C@]1(OC)C(=O)N2C(C(=O)OCc3cccc(C)c3)=C(CSc3nncn3CC(=O)O)CO[C@@H]21 |  | IC50 [1]: 0.44 µM; IC50 [2]: 0.43 µM; IC50 [3]: > 10 µM; IC50 [4]: 0.23 µM; IC50 [5]: > 10 µM |
| CO[C@@]1(NC(=O)c2ccccc2Cl)C(=O)N2C(C(=O)OC(c3ccccc3)c3ccccc3)=C(CSc3nnnn3C)CO[C@@H]21 | 1.7 µM |  |
| CO[C@@]1(NC(=O)Cc2ccc(O)cc2)C(=O)N2C(C(=O)N3CCCC3)=C(CSc3nnnn3C)CO[C@@H]21 | > 10 µM |  |
| CO[C@@]1(NC(=O)Cc2ccc(O)cc2)C(=O)N2C(C(=O)OCc3cccc(C)c3)=C(CSc3nncn3C)CO[C@@H]21 | 4 µM |  |
| COc1ccc(C(=O)N[C@]2(OC)C(=O)N3C(C(=O)OC(c4ccccc4)c4ccccc4)=C(CSc4nnnn4C)CO[C@@H]32)cc1 | > 10 µM |  |
| CO[C@@]1(NC(=O)Cc2ccc(Br)cc2)C(=O)N2C(C(=O)OC(c3ccccc3)c3ccccc3)=C(CSc3nnnn3C)CO[C@@H]21 | 6.8 µM |  |
| CO[C@@]1(NC(=O)Cc2ccc(O)cc2)C(=O)N2C(C(=O)OCc3cccc(C)c3)=C(C)CO[C@@H]21 | > 10 µM |  |
| CO[C@@]1(NC(=O)Cc2ccc(O)cc2)C(=O)N2C(C(=O)OCc3cccc(C)c3)=C(CCl)CO[C@@H]21 | 0.15 µM |  |
| CO[C@@]1(NC(=O)Cc2ccc(-c3ccccc3)cc2)C(=O)N2C(C(=O)OC(c3ccccc3)c3ccccc3)=C(CSc3nnnn3C)CO[C@@H]21 | > 10 µM |  |
